# Results published in the OPERA property sets (Mansouri et al. 2018).
# Details: not given
row,SMILES,logP
1,O=C(Nc1ccccc1)NC1CCCC1,2.65
2,COc1ccc(NC(N)=O)cc1Cl,1.37
3,CCCOC(=O)Nc1ccccc1,2.8
4,COc1ccc(NC(=O)N(C)C)cc1,0.83
5,COc1cccc(NC(=O)N(C)C)c1,1.73
6,CCCCOC(=O)Nc1ccccc1,3.3
7,CON(C)C(=O)Nc1ccc(Br)cc1,2.38
8,O=[N+]([O-])c1ccc(Br)c(Cl)c1,3.25
9,CNC(=O)Nc1ccc(Cl)c(Cl)c1,2.94
10,CNC(=O)Nc1cccc(Cl)c1,2.18
11,CNC(=O)Nc1ccc(C)c(Cl)c1,2.61
12,NC(=O)Nc1cccc(C(F)(F)F)c1,2.31
13,Cc1cc(NC(N)=O)ccc1F,1.59

# Same assay, conditions: 25 °C
row,SMILES,solubility [mM]
1,CC(=O)Nc1cccc(C)c1,8.11
2,CC(=O)Nc1ccccc1Cl,39.8
